# Laboratory results from PubChem BioAssay AID1648 (Sanford-Burnham Center for Chemical Genomics, 2009).
# Activity calls are given as the source filed them. The rule behind the calls is not given here.
# Target: Serine/threonine-protein kinase mTOR (Homo sapiens) (UniProt P42345)
# Experiment: binders of mTOR FRB domain, biophysical, NMR (AID 1648)
# Details: NMR binding to FRB domain, chemical shift
# Serine/threonine-protein kinase mTOR (Homo sapiens), sequence (P42345 2015-2114): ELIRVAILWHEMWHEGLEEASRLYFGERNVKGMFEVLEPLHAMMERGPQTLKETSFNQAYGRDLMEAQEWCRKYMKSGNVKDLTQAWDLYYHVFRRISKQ
row,Structure (SMILES),Kd
1,O=C(NCc1cccc(Cl)c1)c1ccco1,> 4 mM (inactive)
2,O=C(Nc1ccon1)c1csc2c1CCCC2,> 4 mM (inactive)
3,NC(=O)CN=Cc1c(O)[nH]c2ccccc12,> 4 mM (inactive)
4,CC(=O)c1cc(C)ccc1O,> 4 mM (inactive)
5,O=[N+]([O-])c1cccc(-c2nnco2)c1,> 4 mM (inactive)
6,O=C(O)C1NCCc2ccccc21 (stereo not given),> 4 mM (inactive)
7,Cc1ccccc1C(=O)Nc1cccc(N)c1,> 4 mM (inactive)
8,CN1CCc2c(sc(N)c2C#N)C1,> 4 mM (inactive)
9,O=c1[nH]cc(COCc2ccccc2)c(=O)[nH]1,> 4 mM (inactive)
10,Cc1nc2ccccc2c(=O)n1/N=C/c1ccco1,> 4 mM (inactive)
11,C/C=C(/C)C(=O)O[C@@H]1Cc2c(ccc3ccc(=O)oc23)OC1(C)C,> 4 mM (inactive)
12,CNc1nc(N)c(C(=O)C(C)(C)C)s1,> 4 mM (inactive)
13,S=C(NCC1CCCO1)NC1CC1 (stereo not given),> 4 mM (inactive)
14,COc1ccc(C2(C)CC(=O)NC2=O)cc1 (stereo not given),> 4 mM (inactive)
15,O=S(=O)(N1CCOCC1)n1nnc2ccccc21,> 4 mM (inactive)
16,Cc1ccc(C)c(C(=O)n2cnnc2N)c1,> 4 mM (inactive)

row,Structure (SMILES),Kd
1,CCc1cccc(C)c1NC(=O)c1cc(C)oc1C,> 4 mM (inactive)
2,O=C(O)c1cccnc1-c1nc2ccccc2s1,> 4 mM (inactive)
3,NC1=NC(=O)/C(=C\c2ccco2)S1,> 4 mM (inactive)
4,O=C1N=c2ccccc2=C1c1[nH]c(=S)[nH]c1O,> 4 mM (inactive)
5,CC(=O)Nc1ccncc1NC(C)=O,> 4 mM (inactive)
6,Cc1nnc(SCc2ccon2)n1-c1ccccc1,> 4 mM (inactive)
7,COc1ccc(CN2CCOCC2)c(C)c1C,> 4 mM (inactive)
8,O=c1c2c(nc3nc(COc4ccccc4)[nH]n13)CCC2,> 4 mM (inactive)
9,COc1c(OC)c2occc2c2oc(=O)ccc12,> 4 mM (inactive)
10,COc1cccc(-c2csc(NC(C)=O)n2)c1,> 4 mM (inactive)
11,Nc1ccc(-n2cccn2)cc1,> 4 mM (inactive)
12,O=C(O)C1=Cc2ccccc2OC1,> 4 mM (inactive)
13,O=S(=O)(Nc1cccc2cn[nH]c12)c1ccc(F)cc1,> 4 mM (inactive)
14,O=C(O)Cc1n[nH]c(=O)c2ccccc12,> 4 mM (inactive)
15,NCc1cn2ccccc2n1,> 4 mM (inactive)
16,Cn1cnc2cc(NC(=O)c3ccco3)ccc21,> 4 mM (inactive)

# Further lines, results first:
row,Kd,Structure (SMILES)
1,> 4 mM (inactive),COC1=CC(=O)C[C@@H](C)[C@]12Oc1c(Cl)c(OC)cc(OC)c1C2=O
2,> 4 mM (inactive),Cc1cc(N)ccc1NC(=O)c1ccco1
3,> 4 mM (inactive),CNCc1ccco1
4,> 4 mM (inactive),Nc1cc(=O)[nH]c(=S)n1-c1cccc(C(F)(F)F)c1
5,> 4 mM (inactive),O=C(Nc1ccc2c(c1)OCO2)c1cccs1
6,> 4 mM (inactive),O=C(O)c1snnc1-c1ccccc1
7,> 4 mM (inactive),COc1c(O)cc(O)cc1O
8,> 4 mM (inactive),OC1CCCN(Cc2ccccc2)C1 (stereo not given)
9,> 4 mM (inactive),CN(C)S(=O)(=O)N1CCc2ccccc21
10,> 4 mM (inactive),O=c1ccc2nc3ccccc3c(=O)n2[nH]1
11,> 4 mM (inactive),CC(=O)Nc1sc(C)c(C)c1C(N)=O
12,> 4 mM (inactive),COc1ccc(NC(=O)C(N)=O)cc1Cl
13,> 4 mM (inactive),NC(=O)C1CCN(C(=O)CN2CCc3ccccc32)CC1
14,> 4 mM (inactive),Cc1cc(C)n2c(SCc3c(C)noc3C)nnc2n1
15,> 4 mM (inactive),COc1ccc(-c2cc3nc4n(c(=O)c3s2)CCC4)cc1
16,> 4 mM (inactive),CC1=NNC(=O)C1CCc1ccncc1 (stereo not given)
17,> 4 mM (inactive),Cc1ccc(N2NC(=O)CC2=O)cc1C
18,> 4 mM (inactive),OCc1ccc2ncccc2c1
19,> 4 mM (inactive),Cc1cc(C)nc(/N=C(/N)N2CCC(C(N)=O)CC2)n1
20,> 4 mM (inactive),Cc1nc2ccc(NC(=O)N3CCSCC3)cc2s1
21,> 4 mM (inactive),OCc1ccc2c(c1)CCO2
22,> 4 mM (inactive),Cc1cc(=O)n2[nH]c(N)nc2n1
23,> 4 mM (inactive),C=C[C@@H](C1=CC(=O)C(OC)=C(OC)C1=O)c1ccccc1
24,> 4 mM (inactive),O=C(O)c1cc2ccccc2cn1
25,> 4 mM (inactive),CC1(C)Cc2nc(N3CCOCC3)c(C#N)cc2CO1
26,> 4 mM (inactive),O=C1C=C(O)c2ccccc2C1=O
27,> 4 mM (inactive),O=C1C=CC2=C3c4cc(O)c(O)cc4C[C@@]3(O)COC2=C1
28,> 4 mM (inactive),CNC(=O)Cn1c(=O)n(C)c2ccccc21
